Reference: PubChem BioAssay (NCI)
Values joined by “and” are separate entries in the source; they are usually repeats but may differ in a detail not shown here. Equal values may be shown once.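 The compound was tested at five concentrations on cells cultured in 96-well plates, with a 48-hour exposure period. Abbreviation: GI50, concentration required for 50% inhibition of growth. TGI is the concentration that stops growth completely.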

Assays:
Experiment in all cases: NCI anticancer screen, dose series, 48 h
OVCAR-3 ovarian = system: OVCAR-3 ovarian
COLO 205 colon = system: COLO 205 colon
IGROV1 ovarian = system: IGROV1 ovarian
DU-145 prostate = system: DU-145 prostate
HOP-62 NSCLC = system: HOP-62 NSCLC
OVCAR-5 ovarian = system: OVCAR-5 ovarian
HL-60(TB) leukemia = system: HL-60(TB) leukemia
MCF7 breast = system: MCF7 breast
RPMI-8226 leukemia = system: RPMI-8226 leukemia
HOP-92 NSCLC = system: HOP-92 NSCLC

Row | Structure (SMILES) | GI50 (OVCAR-3 ovarian) [nM] | TGI (OVCAR-3 ovarian) | GI50 (COLO 205 colon) | TGI (COLO 205 colon) | GI50 (IGROV1 ovarian) [nM] | TGI (IGROV1 ovarian) | GI50 (DU-145 prostate) [nM] | TGI (DU-145 prostate) | GI50 (HOP-62 NSCLC) [nM] | TGI (HOP-62 NSCLC) | GI50 (OVCAR-5 ovarian) [nM] | TGI (OVCAR-5 ovarian) | GI50 (HL-60(TB) leukemia) | TGI (HL-60(TB) leukemia) | GI50 (MCF7 breast) [nM] | TGI (MCF7 breast) | GI50 (RPMI-8226 leukemia) [nM] | TGI (RPMI-8226 leukemia) | GI50 (HOP-92 NSCLC) [nM] | TGI (HOP-92 NSCLC)
1 | CN(CCCN(C)CCC1CCCCC1)CCC1CCCCC1 | 3950 | 15 µM | 1770 nM | 3.27 µM | 1090 | 5.54 µM | 8510 | 20.8 µM | 5300 | 17.7 µM | 2980 | 10.7 µM | 319 nM | 8.61 µM | 1620 | 3.28 µM | 1470 | 5.09 µM | 687 | 5.72 µM
2 | O=C1C=C(OCCCl)C(=O)c2c(O)ccc(O)c21 | 286 | 2.33 µM and 1.08 µM | 592 nM | 0.338 µM and 1.92 µM | – | 3.43 µM and 3.66 µM | 1010 | 0.746 µM and 2.29 µM | 1970 | 1.52 µM and 3.39 µM | 2010 | 2.98 µM and 3.56 µM | 230 nM | 2.58 µM and 1.17 µM | 399 | 0.472 µM and 1.75 µM | 1380 | 6.78 µM and 4.08 µM | 3430 | 3.8 µM and 8 µM
3 | O=c1[nH]nc(-c2ccccc2)c2c(-c3ccccc3)onc12 | 358 | 1.44 µM | 505 nM | 9.89 µM | 615 | > 100 µM | 1790 | 27.2 µM | – | > 100 µM | > 62800 | > 100 µM | 291 nM | – | 368 | > 100 µM | 474 | > 55.4 µM | 933 | > 58.3 µM
4 | COc1cc2nncc(SCc3ccc(Cl)c(Cl)c3)c2cc1OC | – | > 100 µM | – | > 100 µM | – | > 100 µM | – | > 100 µM | – | > 100 µM | – | > 100 µM | – | > 100 µM | – | > 100 µM | – | > 100 µM | – | > 100 µM
5 | NCCSC(C[N+](=O)[O-])c1ccccc1Cl (centres undefined) | 1880 | 3.5 µM | 2140 nM | 4.35 µM | 2890 | 9.67 µM | 1920 | 3.62 µM | 8090 | 23.1 µM | 4660 | 10.4 µM | 3380 nM | > 23.3 µM | 1130 | 3.2 µM | 727 | 5.3 µM | 12500 | 47.2 µM
6 | COc1cc2c3cc1Oc1c(OC)c(OC)cc4c1C(Cc1ccc(cc1)Oc1cc(ccc1O)CC3N(C)CC2)N(C)CC4 (centres undefined) | – | 29.1 µM and 62.8 µM | 11000 nM and 1520 nM | 23 µM and 11.3 µM | – | 43.8 µM and 29.4 µM | – | 24.8 µM | – | 34.7 µM | – | 67.4 µM and 29.6 µM | 5610 nM and 1880 nM | 30.5 µM and 7.29 µM | – | 20.8 µM | – | 32.1 µM | – | 38.7 µM and 41.3 µM
7 | CN(C)C(=S)SCC(N)=O | – | > 100 µM | – | > 100 µM | – | > 100 µM | – | > 100 µM | – | > 100 µM | – | > 100 µM | – | > 100 µM | – | > 100 µM | – | > 100 µM | – | > 100 µM
8 | CCCCN(CCCC)CCC(O)c1cc2ccc(C(F)(F)F)cc2c2cc(C(F)(F)F)ccc12 (centres undefined) | 2890 | 7.55 µM | 1620 nM | 3.33 µM | 3470 | 14.5 µM | 6150 | 18.7 µM | 2200 | 5.68 µM | 2970 | 12.8 µM | 1440 nM | 3.42 µM | 1620 | 3.74 µM | 2280 | 6.17 µM | 1490 | 4.26 µM
9 | COc1ccc2c(c1)C=C1CSCC3=Cc4cc(OC)ccc4OC13O2 | 295 | 0.884 µM | 292 nM | 0.917 µM | 608 | > 100 µM | 402 | > 100 µM | 407 | > 100 µM | 757 | > 100 µM | 270 nM | 0.801 µM | 313 | > 100 µM | 368 | > 34.4 µM | 4600 | > 100 µM
10 | Oc1ccc(O)c2c1C1(Cl)C(Cl)=C(Cl)C2(Cl)C1(Cl)Cl | 2030 | 5.17 µM | 11600 nM | 25.4 µM | 5730 | 20.2 µM | 3450 | 12.9 µM | 8270 | 21.2 µM | 12600 | 33.8 µM | 3190 nM | 12.1 µM | 6400 | > 100 µM | 4820 | 63.3 µM | 1510 | 7.13 µM
11 | CN(C)CC1=Nc2cccc3cccc(c23)N1 | – | 30.5 µM | – | 7.11 µM | – | 36.6 µM | – | 30.9 µM | – | > 100 µM | – | 31.6 µM | – | 45.2 µM | – | 30.8 µM | – | 55.8 µM | – | 33.1 µM
12 | CCC(=O)c1c(C(F)(F)F)n([O-])c2ccccc2[n+]1=O | 1740 | 6.35 µM | 2060 nM | 6.51 µM | 1380 | > 100 µM | 1590 | 3.27 µM | 700 | 3.54 µM | 3890 | 13.1 µM | 3030 nM | > 100 µM | 1080 | 6.72 µM | 694 | 3.69 µM | 1500 | 6.08 µM
13 | c1ccc(/C(=N\Nc2ccc3ccccc3n2)c2ccccn2)cc1 | 291 | 2.49 µM | 407 nM | 5.08 µM | 433 | 3.23 µM | 881 | 16.8 µM | 1210 | 15.9 µM | 810 | 43 µM | 235 nM | 0.775 µM | 907 | 11.5 µM | 503 | 3.68 µM | 551 | 19.8 µM
14 | CC(C)=CCc1cc(C2COc3cc4c(c(O)c3C2=O)C=CC(C)(C)O4)c(O)cc1O (centres undefined) | – | 27.3 µM | – | 49.9 µM | – | 36.4 µM | – | 27.9 µM | – | 32.3 µM | – | 29.7 µM | – | 31.1 µM | – | 33.5 µM | – | 24.4 µM | – | 33.1 µM
15 | O=C(Cn1c2ccccc2c2ccncc21)N/N=C\c1ccc2ccccc2c1 | 12200 | 36.5 µM | 25800 nM | > 100 µM | 13000 | 38.3 µM | 23900 | > 100 µM | 17300 | 39.3 µM | 36500 | > 100 µM | 29000 nM | > 100 µM | 14300 | > 100 µM | 7880 | > 100 µM | 12400 | 36.7 µM
